# Measured values: PubChem BioAssay AID1963976 (Molecular Pharmacology Branch, DTP, NCI, 2024)
# System: 435261-313-R-J1-PDC tumor spheroid viability
# Assay: Anticancer human tumor 435261-313-R-J1-PDC patient-derived colon adenocarcinoma cell line growth inhibition [PI3K]
# Conditions: spheroids with HUVEC and MSC; for IC50: curve of first compound; for viability, T/C: stronger effect = lower value
# Summary of the method: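 Multi-cell spheroids combine tumor cells with HUVEC and human MSCs, treated with targeted agents alone or with inavolisib, alpelisib, duvelisib or copanlisib. Concentrations fall in half-log steps from at or near clinical Cmax, or from 10 microM where Cmax is unknown; viability read-out.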
# [1] = second compound 0.00316 µM, first compound 0.0316 µM
# [2] = second compound 0.00316 µM, first compound 0.1 µM
# [3] = second compound 0.00316 µM, first compound 0.316 µM
# [4] = second compound 0.00316 µM, first compound 1 µM
# [5] = second compound 0.00316 µM, first compound 3.16 µM
# [6] = second compound 0.00316 µM, first compound 10 µM
# [7] = second compound 0.01 µM, first compound 0.0316 µM
# [8] = second compound 0.01 µM, first compound 0.1 µM
# [9] = second compound 0.01 µM, first compound 0.316 µM
# [10] = second compound 0.01 µM, first compound 1 µM
# [11] = second compound 0.01 µM, first compound 3.16 µM
# [12] = second compound 0.01 µM, first compound 10 µM
# [13] = second compound 0.0316 µM, first compound 0.0316 µM
# [14] = second compound 0.0316 µM, first compound 0.1 µM
# [15] = second compound 0.0316 µM, first compound 0.316 µM
# [16] = second compound 0.0316 µM, first compound 1 µM
# [17] = second compound 0.0316 µM, first compound 3.16 µM
# [18] = second compound 0.0316 µM, first compound 10 µM
# [19] = second compound 0.1 µM, first compound 0.0316 µM
# [20] = second compound 0.1 µM, first compound 0.1 µM
# [21] = second compound 0.1 µM, first compound 0.316 µM
# [22] = second compound 0.1 µM, first compound 1 µM
# [23] = second compound 0.1 µM, first compound 3.16 µM
# [24] = second compound 0.1 µM, first compound 10 µM
# [25] = second compound 0.316 µM, first compound 0.0316 µM
# [26] = second compound 0.316 µM, first compound 0.1 µM
# [27] = second compound 0.316 µM, first compound 0.316 µM
# [28] = second compound 0.316 µM, first compound 1 µM
# [29] = second compound 0.316 µM, first compound 3.16 µM
# [30] = second compound 0.316 µM, first compound 10 µM
# [31] = second compound 1 µM, first compound 0.0316 µM
# [32] = second compound 1 µM, first compound 0.1 µM
# [33] = second compound 1 µM, first compound 0.316 µM
# [34] = second compound 1 µM, first compound 1 µM
# [35] = second compound 1 µM, first compound 3.16 µM
# [36] = second compound 1 µM, first compound 10 µM
# 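Also: spheroids exposed to compounds for 7 days.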
smiles,measurement,setting,value
C=CC(=O)N1CCN(c2nc(=O)n(-c3c(C)ccnc3C(C)C)c3nc(-c4c(O)cccc4F)c(F)cc23)C(C)C1 (stereo not drawn) + CC(Nc1ccc2c(c1)OCCn1cc(N3C(=O)OCC3C(F)F)nc1-2)C(N)=O,IC50,second compound 0.00316 µM,> 10000 nM
same,IC50,second compound 0.01 µM,> 10000 nM
same,IC50,second compound 0.0316 µM,> 10000 nM
same,IC50,second compound 0.1 µM,< 31.6 nM
same,IC50,second compound 0.316 µM,< 31.6 nM
same,IC50,second compound 1 µM,< 31.6 nM
same,"viability, T/C",[1],83.2%
same,"viability, T/C",[2],81.4%
same,"viability, T/C",[3],111%
same,"viability, T/C",[4],126%
same,"viability, T/C",[5],117%
same,"viability, T/C",[6],120%
same,"viability, T/C",[7],99.2%
same,"viability, T/C",[8],88.4%
same,"viability, T/C",[9],95.1%
same,"viability, T/C",[10],89.5%
same,"viability, T/C",[11],91.7%
same,"viability, T/C",[12],111%
same,"viability, T/C",[13],70.7%
same,"viability, T/C",[14],78.6%
same,"viability, T/C",[15],71.5%
same,"viability, T/C",[16],70.2%
same,"viability, T/C",[17],87.4%
same,"viability, T/C",[18],101%
same,"viability, T/C",[19],49.7%
same,"viability, T/C",[20],42.6%
same,"viability, T/C",[21],45.5%
same,"viability, T/C",[22],37.9%
same,"viability, T/C",[23],60.9%
same,"viability, T/C",[24],54.5%
same,"viability, T/C",[25],20.8%
same,"viability, T/C",[26],22%
same,"viability, T/C",[27],27%
same,"viability, T/C",[28],22.8%
same,"viability, T/C",[29],25.5%
same,"viability, T/C",[30],21.1%
same,"viability, T/C",[31],20.2%
same,"viability, T/C",[32],16.5%
same,"viability, T/C",[33],18.1%
same,"viability, T/C",[34],20.4%
same,"viability, T/C",[35],14.9%
same,"viability, T/C",[36],17.9%
CCN1CCN(Cc2ccc(Nc3ncc(F)c(-c4cc(F)c5nc(C)n(C(C)C)c5c4)n3)nc2)CC1 + CC(Nc1ccc2c(c1)OCCn1cc(N3C(=O)OCC3C(F)F)nc1-2)C(N)=O,IC50,second compound 0.00316 µM,124 nM
same,IC50,second compound 0.01 µM,30.8 nM
same,IC50,second compound 0.0316 µM,20.6 nM
same,IC50,second compound 0.1 µM,< 3.16 nM
same,IC50,second compound 0.316 µM,< 3.16 nM
same,IC50,second compound 1 µM,< 3.16 nM
same,"viability, T/C","second compound 0.00316 µM, first compound 0.00316 µM",94%
same,"viability, T/C","second compound 0.00316 µM, first compound 0.01 µM",71.5%
same,"viability, T/C",[1],53.1%
same,"viability, T/C",[2],66.9%
same,"viability, T/C",[3],37%
same,"viability, T/C",[4],33.9%
same,"viability, T/C","second compound 0.01 µM, first compound 0.00316 µM",71.5%
same,"viability, T/C","second compound 0.01 µM, first compound 0.01 µM",103%
same,"viability, T/C",[7],49.1%
same,"viability, T/C",[8],46.4%
same,"viability, T/C",[9],33.8%
same,"viability, T/C",[10],33.8%
same,"viability, T/C","second compound 0.0316 µM, first compound 0.00316 µM",73.6%
same,"viability, T/C","second compound 0.0316 µM, first compound 0.01 µM",58.5%
same,"viability, T/C",[13],47.3%
same,"viability, T/C",[14],29.1%
same,"viability, T/C",[15],28.3%
same,"viability, T/C",[16],30.5%
same,"viability, T/C","second compound 0.1 µM, first compound 0.00316 µM",37.7%
same,"viability, T/C","second compound 0.1 µM, first compound 0.01 µM",20.3%
same,"viability, T/C",[19],25.9%
same,"viability, T/C",[20],21.1%
same,"viability, T/C",[21],19.8%
same,"viability, T/C",[22],25.3%
same,"viability, T/C","second compound 0.316 µM, first compound 0.00316 µM",17.9%
same,"viability, T/C","second compound 0.316 µM, first compound 0.01 µM",20.8%
same,"viability, T/C",[25],16.7%
same,"viability, T/C",[26],16.8%
same,"viability, T/C",[27],17.2%
same,"viability, T/C",[28],16%
same,"viability, T/C","second compound 1 µM, first compound 0.00316 µM",17.1%
same,"viability, T/C","second compound 1 µM, first compound 0.01 µM",15.3%
same,"viability, T/C",[31],14%
same,"viability, T/C",[32],15.2%
same,"viability, T/C",[33],15.1%
same,"viability, T/C",[34],13.4%
Cn1ncc(Cl)c1-c1cc(C(=O)NC(CN)Cc2cccc(F)c2)sc1Cl (stereo not drawn) + CC(Nc1ccc2c(c1)OCCn1cc(N3C(=O)OCC3C(F)F)nc1-2)C(N)=O,IC50,second compound 0.00316 µM,567 nM
same,IC50,second compound 0.01 µM,447 nM
same,IC50,second compound 0.0316 µM,225 nM
same,IC50,second compound 0.1 µM,31.9 nM
same,IC50,second compound 0.316 µM,< 31.6 nM
same,IC50,second compound 1 µM,< 31.6 nM
same,"viability, T/C",[1],75.2%
same,"viability, T/C",[2],84.9%
same,"viability, T/C",[3],67.3%
same,"viability, T/C",[4],31.6%
same,"viability, T/C",[5],18.7%
same,"viability, T/C",[6],7.28%
same,"viability, T/C",[7],67.9%
same,"viability, T/C",[8],92.8%
same,"viability, T/C",[9],51.9%
same,"viability, T/C",[10],31.2%
same,"viability, T/C",[11],19.1%
same,"viability, T/C",[12],6.44%
same,"viability, T/C",[13],67.8%
same,"viability, T/C",[14],91.3%
same,"viability, T/C",[15],37.5%
same,"viability, T/C",[16],25.3%
same,"viability, T/C",[17],17.2%
same,"viability, T/C",[18],5.79%
same,"viability, T/C",[19],50.8%
same,"viability, T/C",[20],38%
same,"viability, T/C",[21],21.1%
same,"viability, T/C",[22],19.4%
same,"viability, T/C",[23],15.4%
same,"viability, T/C",[24],5.16%
same,"viability, T/C",[25],20.9%
same,"viability, T/C",[26],20.1%
same,"viability, T/C",[27],14%
same,"viability, T/C",[28],16.5%
same,"viability, T/C",[29],13%
same,"viability, T/C",[30],4.44%
same,"viability, T/C",[31],18.2%
same,"viability, T/C",[32],13.5%
same,"viability, T/C",[33],15.7%
same,"viability, T/C",[34],17.2%
same,"viability, T/C",[35],11.4%
same,"viability, T/C",[36],2.55%
Cn1nccc1Nc1nccc(-c2ccn(C(CO)c3ccc(Cl)c(F)c3)c(=O)c2)n1 (stereo not drawn) + CC(Nc1ccc2c(c1)OCCn1cc(N3C(=O)OCC3C(F)F)nc1-2)C(N)=O,IC50,second compound 0.00316 µM,421 nM
same,IC50,second compound 0.01 µM,218 nM
same,IC50,second compound 0.0316 µM,105 nM
same,IC50,second compound 0.1 µM,< 31.6 nM
same,IC50,second compound 0.316 µM,< 31.6 nM
same,IC50,second compound 1 µM,< 31.6 nM
same,"viability, T/C",[1],90.4%
same,"viability, T/C",[2],73.3%
same,"viability, T/C",[3],51.7%
same,"viability, T/C",[4],40.1%
same,"viability, T/C",[5],22.1%
same,"viability, T/C",[6],12.8%
same,"viability, T/C",[7],72.6%
same,"viability, T/C",[8],71.7%
same,"viability, T/C",[9],39.5%
same,"viability, T/C",[10],25.6%
same,"viability, T/C",[11],27%
same,"viability, T/C",[12],11.7%
same,"viability, T/C",[13],68%
same,"viability, T/C",[14],52.1%
same,"viability, T/C",[15],28.7%
same,"viability, T/C",[16],18.9%
same,"viability, T/C",[17],14.9%
same,"viability, T/C",[18],8.18%
same,"viability, T/C",[19],38.6%
same,"viability, T/C",[20],23.1%
same,"viability, T/C",[21],16.9%
same,"viability, T/C",[22],11.8%
same,"viability, T/C",[23],10.1%
same,"viability, T/C",[24],5.9%
same,"viability, T/C",[25],19.6%
same,"viability, T/C",[26],16.3%
same,"viability, T/C",[27],9.92%
same,"viability, T/C",[28],8.05%
same,"viability, T/C",[29],5.78%
same,"viability, T/C",[30],3.34%
same,"viability, T/C",[31],16.8%
same,"viability, T/C",[32],12.2%
same,"viability, T/C",[33],6.71%
same,"viability, T/C",[34],6.3%
same,"viability, T/C",[35],4.27%
same,"viability, T/C",[36],0.75%
